{"source": "patent US12293809B2", "about": "“Workflow for generating compounds with biological activity against a specific biological target” (INSILICO MEDICINE IP LIMITED, priority 2019, dated 2025)", "key": {"eEF-2K": {"target": "T1, eEF-2K (Homo sapiens, UniProt O00418)", "T1 construct": "purchased Eurofins 50-100KP10", "assay": "scanMAX Delta Kinase Panel (Eurofins), single concentration", "type": "biochemical", "conditions": "10 μM; highest inhibition within the panel", "experimental": "The issue of selectivity is of vital importance for a lead compound to estimate possible off-target effects that can influence the pre-clinical evaluation success. […] DDR1 kinase is mostly expressed in epithelial cells, whereas the expression of DDR2 is generally observed in […]. Even though that the prevention of fibrosis is the primary goal, the selectivity over DDR2 kinase is also a very important consideration.\nThe experimental procedures were performed by Eurofins. The activity of the molecules against hDDR1 and hDDR2 kinases was assessed using KinaseProfiler^67. The enzyme sample was incubated with 8 mM MOPS buffer (pH=7.0), 0.2 mM EDTA, […] target protein hDDR1 and hDDR2 kinases, 10 mM Magnesium acetate/Manganese chloride, respectively, and [γ-^33P]-ATP. The enzymatic reaction processed in the presence of Mg^2+ cations and ATP at room temperature for 40 minutes and terminated by addition of phosphoric acid. The reaction mixture (10 μL) was spotted onto a P30 filtermat and washed four times using 0.425% phosphoric acid and once with methanol. All the compounds were prepared in 100% DMSO. […] The biological evaluation of selectivity against non-target kinases was performed in Dundee Eurofins, using Scan Max Delta Panel [10 μM ATP] KinaseProfiler^68."}, "[1]": {"assay": "Mouse PK study, IV administration", "type": "in vivo", "conditions": "IV 10 mg/kg, M01-M03 individual"}, "[2]": {"conditions": "10 μM", "experimental": "Test compounds (at 10 μM) were incubated at 25° C. with 50 mM phosphate buffer, pH=7.4 and 8 mM MOPS pH 7.0, 0.2 mM EDTA, pH=7.0. Duplicate samples were used. […] Curcumin was used as positive control in this assay at neutral-basic condition. Samples were analyzed by LC/MS/MS, disappearance of test compound was assessed based on peak area ratios of analyte/IS (no standard curve)."}, "hDDR1 [3]": {"target": "T2, hDDR1 (Homo sapiens, UniProt Q08345)", "T2 sequence (Q08345 19-913)": "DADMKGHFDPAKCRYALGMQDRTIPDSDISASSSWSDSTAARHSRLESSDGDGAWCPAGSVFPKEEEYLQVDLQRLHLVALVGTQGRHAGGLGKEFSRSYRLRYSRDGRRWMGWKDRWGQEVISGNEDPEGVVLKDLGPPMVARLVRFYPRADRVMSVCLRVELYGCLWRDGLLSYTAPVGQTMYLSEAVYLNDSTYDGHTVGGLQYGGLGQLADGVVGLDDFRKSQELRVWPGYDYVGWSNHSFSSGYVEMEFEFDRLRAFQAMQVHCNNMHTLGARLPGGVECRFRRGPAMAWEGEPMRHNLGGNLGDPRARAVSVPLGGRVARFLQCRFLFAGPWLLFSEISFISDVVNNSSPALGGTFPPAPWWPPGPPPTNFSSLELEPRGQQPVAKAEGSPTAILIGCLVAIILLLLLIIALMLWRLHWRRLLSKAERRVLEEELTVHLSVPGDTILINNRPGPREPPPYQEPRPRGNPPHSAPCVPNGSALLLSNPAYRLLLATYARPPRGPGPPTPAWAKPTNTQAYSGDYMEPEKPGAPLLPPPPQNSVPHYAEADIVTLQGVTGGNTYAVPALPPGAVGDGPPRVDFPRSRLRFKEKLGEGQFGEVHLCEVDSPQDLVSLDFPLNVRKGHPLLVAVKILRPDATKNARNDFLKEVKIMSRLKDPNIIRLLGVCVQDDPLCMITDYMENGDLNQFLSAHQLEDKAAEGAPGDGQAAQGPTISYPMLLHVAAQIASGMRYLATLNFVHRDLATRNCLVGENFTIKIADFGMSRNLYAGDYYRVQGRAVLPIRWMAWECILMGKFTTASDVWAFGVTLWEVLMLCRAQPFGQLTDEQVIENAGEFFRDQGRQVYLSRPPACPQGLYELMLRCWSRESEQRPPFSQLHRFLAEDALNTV", "assay": "Rescreen in another biochemical assay (Thermo Fisher-PR6913A)", "conditions": "read-out: IC50 towards DDR1 kinase, rescreen", "experimental": "In the present example, six molecules were generated, selected, and synthesized and were submitted for biological testing (e.g., within 35 days). […] Since the dose-response curves for Compounds 2 and 4 seemed likely inconsistent, additional experiments were performed to confirm the activity of these molecules towards DDR1 kinase (see FIG. 4B). […] Compounds 1 and 2 were also evaluated towards DDR2 kinase.\nFIGS. 4A-4B show the structures and dose-response curves for the generated molecules. The six generated compounds were tested in a dose-dependent manner against DDR1 tyrosine kinase."}, "hDDR1 [4]": {"target": "T2, hDDR1", "assay": "KinaseProfiler radiometric biochemical kinase assay (Eurofins)", "set-up": "purchased Eurofins 14-942KP10", "experimental": "The experimental procedures were performed by Eurofins. The activity of the molecules against hDDR1 and hDDR2 kinases was assessed using KinaseProfiler^67. […] The enzymatic reaction processed in the presence of Mg^2+ cations and ATP at room temperature for 40 minutes and terminated by addition of phosphoric acid. […] All the compounds were prepared in 100% DMSO. […] The biological evaluation of selectivity against non-target kinases was performed in Dundee Eurofins, using Scan Max Delta Panel [10 μM ATP] KinaseProfiler^68."}, "Human DDR1b": {"target": "T3, Human DDR1b (Homo sapiens, UniProt Q08345)", "T3 construct": "expressed in transfected cells", "T3 sequence (Q08345 19-913)": "as above", "assay": "DDR1 autophosphorylation in collagen-stimulated U2OS cells (Western blot)", "type": "cell-based", "conditions": "normalized to HA and GAPDH", "experimental": "The amount of activated DRR1 (Y543) was measured using Western blot analysis, the obtained data were normalized to HA and GAPDH protein levels.\nHuman DDR1b gene with HA-tag was cloned into pCMV Tet-On vector (Clontech) and stable inducible cell lines established in U2OS were used for the IC50 test. […] The cells were detached with trypsinization and transferred to a 15-ml tube."}, "[5]": {"assay": "Microsomal stability (MLM)", "experimental": "Cold acetonitrile (ACN) including 100 ng/mL Tolbutamide and 100 ng/mL Labetalol as internal standard (IS) were used for stop solution. 10 μL compound or control working solution/well was added to all plates (T0, T5, T10, T20, T30, T60, NCF60) except matrix blank. Dispense 80 μL/well microsome solution was added to every plate by Apricot, the mixture of microsome solution and compound were incubated at 37° C. for about 10 min. After pre-warming, dispense 10 μL/well NADPH regenerating system was added to every plate by Apricot to start reaction. The solution was then incubated at 37° C. 300 (μL/well) stop solution (cold in 4° C.) was added to terminate the reaction. The sampling plates were shaken for approximately 10 min. Samples were centrifuged at 4000 rpm for 20 min under 4° C. While centrifuging, 8×new 96-well plate were loaded with 300 μL HPLC water, then 100 μL supernatant was transferred and mixed for LC/MS/MS."}}, "note": "Where “and” joins values, the source holds several entries; their conditions need not be identical. Equal values may be shown once. Read-outs that look alike come from different tables or passages of the source.", "data": [{"compound": "Cc1ccc2c(Nc3cccc(C(F)(F)F)c3)noc2c1C#Cc1cnc2cccnn12", "note": "[Compound 1]", "values": [{"measurement": "INH %", "setting": "eEF-2K", "value": 37, "unit": "%"}, {"measurement": "Tlast", "setting": "[1]; c4 Mean", "value": "24.0 ± — h"}, {"measurement": "AUC0-inf", "setting": "[1]; c4 Mean ± SD", "value": "6888 ± 359", "unit": "ng·h/mL"}, {"measurement": "AUC0-last", "setting": "[1]; c4 Mean ± SD", "value": "6830 ± 349", "unit": "ng·h/mL"}, {"measurement": "AUCExtra", "setting": "[1]; c4 Mean ± SD", "value": "0.845 ± 0.104", "unit": "%"}, {"measurement": "AUMCExtra", "setting": "[1]; c4 Mean ± SD", "value": "5.42 ± 0.663", "unit": "%"}, {"measurement": "C0", "setting": "[1]; c4 Mean ± SD", "value": "2598 ± 572", "unit": "ng/mL"}, {"measurement": "Cl", "setting": "[1]; c4 Mean ± SD", "value": "19.1 ± 0.970", "unit": "mL/min/kg"}, {"measurement": "MRT0-inf", "setting": "[1]; c4 Mean ± SD", "value": "4.56 ± 0.193", "unit": "h"}, {"measurement": "MRT0-last", "setting": "[1]; c4 Mean ± SD", "value": "4.35 ± 0.187", "unit": "h"}, {"measurement": "T1/2", "setting": "[1]; c4 Mean ± SD", "value": "3.65 ± 0.123", "unit": "h"}, {"measurement": "Vdss", "setting": "[1]; c4 Mean ± SD", "value": "5.21 ± 0.349", "unit": "L/kg"}]}, {"compound": "O=C(Nc1cccc(C(=O)N2CCN(c3ccnc4[nH]ccc34)C2)c1)c1cccc(C(F)(F)F)c1", "note": "[Compound 2]", "values": [{"measurement": "% Remain", "setting": "[2]; 8 mM MOPS pH 7.0, 0.2 mM EDTA, pH 7.0, 0 min", "value": 100.00, "unit": "%"}, {"measurement": "% Remain", "setting": "[2]; 8 mM MOPS pH 7.0, 0.2 mM EDTA, pH 7.0, 120 min", "value": 101.41, "unit": "%"}, {"measurement": "% Remain", "setting": "[2]; 8 mM MOPS pH 7.0, 0.2 mM EDTA, pH 7.0, 240 min", "value": 103.81, "unit": "%"}, {"measurement": "% Remain", "setting": "[2]; 8 mM MOPS pH 7.0, 0.2 mM EDTA, pH 7.0, 360 min", "value": 106.18, "unit": "%"}, {"measurement": "% Remain", "setting": "[2]; 8 mM MOPS pH 7.0, 0.2 mM EDTA, pH 7.0, 1440 min", "value": 105.37, "unit": "%"}, {"measurement": "% Remain", "setting": "[2]; 50 mM phosphate buffer, pH 7.4, 0 min", "value": 100.00, "unit": "%"}, {"measurement": "% Remain", "setting": "[2]; 50 mM phosphate buffer, pH 7.4, 120 min", "value": 100.65, "unit": "%"}, {"measurement": "% Remain", "setting": "[2]; 50 mM phosphate buffer, pH 7.4, 240 min", "value": 97.05, "unit": "%"}, {"measurement": "% Remain", "setting": "[2]; 50 mM phosphate buffer, pH 7.4, 360 min", "value": 100.07, "unit": "%"}, {"measurement": "% Remain", "setting": "[2]; 50 mM phosphate buffer, pH 7.4, 1440 min", "value": 107.23, "unit": "%"}, {"measurement": "IC50", "setting": "hDDR1 [3]", "value": "37 nM and 37.1 nM"}, {"measurement": "activity against DDR1 kinase (in words)", "setting": "hDDR1 [4]", "value": "low nanomolar range"}, {"measurement": "LE** = 1.4*(pIC50)/N", "setting": "hDDR1 [4]; N number of heavy atoms", "value": 0.31}, {"measurement": "IC50", "setting": "hDDR1 [4]; read-out: IC50, inhibition of DDR1 activity", "value": 21, "unit": "nM"}, {"measurement": "IC50", "setting": "Human DDR1b", "value": 5.8, "unit": "nM"}, {"measurement": "CLint(mic)", "setting": "[5]; MLM 0.5", "value": 91.8}, {"measurement": "T1/2", "setting": "[5]; mouse, microsomes", "value": 0.252, "unit": "h"}, {"measurement": "Remaining (*NCF = 60 min)", "setting": "[5]; mouse, microsomes, 1 h", "value": 86.0, "unit": "%"}, {"measurement": "Remaining (T = 60 min)", "setting": "[5]; mouse, microsomes, 1 h", "value": 5.3, "unit": "%"}]}]}
